The record followed here is patent publication US9115117B2, “Substituted piperidine compounds and their use as orexin receptor modulators” (JANSSEN PHARMACEUTICA NV, priority 2013, dated 2015).

Structures can show the parent of a compound that is named as a salt. Where two headings read alike, the source gives them in different places.

The target of one assay is rat orexin 1 receptor (Rattus norvegicus, UniProt P56718). Nature of the assay: Rat orexin 1 receptor radioligand binding. Particulars: HEK293 cells stably expressing rat orexin 1 receptor; apparent Ki; read-out: rOX1 Ki. The essentials: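 Homogenized cell suspensions competed against 4 nM final of a tritiated oxadiazolyl-pyrrolidinyl thiazole methanone radioligand (35.3 Ci/mmol) in PBS, with DMSO ≤0.1%. Nonspecific binding defined with 10 μM almorexant; after washing and drying, bound radioactivity counted by scintillation.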

A further assay concerns the target human orexin 1 receptor (Homo sapiens, UniProt O43613). Nature of the assay: Human orexin 1 receptor radioligand binding. Particulars: CHO cells stably expressing human orexin 1 receptor; apparent Ki; read-out: hOX1 Ki. The protocol:
The in vitro affinity of the compounds of the invention for the rat/human orexin 1 and human orexin 2 receptors was determined by competitive radioligand binding using [^3H](1-(5-(2-fluoro-phenyl)-2-methyl-thiazol-4-yl)-1-((S)-2-(5-phenyl-(1,3,4)oxadiazol-2-ylmethyl)-pyrrolidin-1-yl)-methanone)(Langmead et al., 2004) and [^3H]EMPA (n-ethyl-2[96-methoxy-pyridin-3-yl)-(toluene-2-sulfonyl)-amino]-N-pyridin-3-ylmethyl acetamide), respectively (Langmead et al., 2004, British Journal of Pharmacology 141:340-346; Malherbe et al., 2004, British Journal of Pharmacology 156:1326-41).
Human Embryonic Kidney 293 cells (HEK293) stably expressing rat orexin 1 receptor (Genebank accession number NM_001525) or Chinese ovary cells (CHO) stably expressing human orexin 1 receptor (Genebank accession number NM_001526) were grown to confluency in DMEM (Hyclone, cat #SH30022), 10% FBS, 1× Pen/Strep, 1× sodium pyruvate, 10 mM HEPES, 600 µg/mL G418 and DMEM/F12 (Gibco, Cat #11039), 10% FBS, 1× Pen/Strep, 600 µg/mL G418 media, respectively on 150 cm^2 tissue culture plates, washed with 5 mM EDTA in PBS (HyClone Dulbecco's Phoshpate Buffered Saline 1× with Calcium and Magnesium, Cat #SH30264.01, hereafter referred to simply as PBS) and scraped into 50 ml tubes. After centrifugation (2K×G, 5 min at 4° C.), the supernatant was aspirated and the pellets frozen and stored at −80° C. Cells were resuspended in PBS in the presence of 1 tablet of protease inhibitor cocktail (Roche, Cat. #11836145001) per 50 mL. Each cell pellet from a 15 cm plate was resuspended in 10 mL, stored on ice, and homogenized for 45 sec prior to addition to the reactions. Competition binding experiments in 96 well polypropylene plates were performed using [^3H]-(1-(5-(2-fluoro-phenyl)-2-methyl-thiazol-4-yl)-1-((S)-2-(5-phenyl-(1,3,4)oxadiazol-2-ylmethyl)-pyrrolidin-1-yl)-methanone) (Moraveck Corporation, specific activity=35.3 Ci/mmol), diluted to a 10 nM concentration in PBS (4 nM final). […] The final concentration of DMSO in the reactions is equal to or less than 0.1%. Total and nonspecific binding was determined in the absence and presence of 10 μM almorexant. The total volume of each reaction is 200 μL (20 μL of diluted compounds, 80 μL of [3H]-(1-(5-(2-fluoro-phenyl)-2-methyl-thiazol-4-yl)-1-((S)-2-(5-phenyl-(1,3,4)oxadiazol-2-ylmethyl)-pyrrolidin-1-yl)-methanone) diluted in PBS and 100 μL of the cell suspension). Reactions were run for 60 min at room temperature and terminated by filtration through GF/C filter plates (PerkinElmer, Cat. #6005174) presoaked in 0.3% polyethylenimine using the cell harvester (PerkinElmer Filtermate). The plates were washed 3 times by aspirating 30 ml PBS through the plates. Plates were dried in 55° C. oven for 60 min, scintillation fluid was added, and the radioactivity was counted on a Topcount (Packard).

For another assay, the target named is human orexin 2 receptor (Homo sapiens (Human), UniProt O43614). In words: Human orexin 2 receptor radioligand binding ([3H]-EMPA). The essentials: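 Competition binding with 2 nM final [3H]-EMPA in PBS against homogenized whole-cell suspension; DMSO ≤0.1%. Nonspecific binding defined with […] almorexant. Plates washed with PBS, dried, and bound radioactivity counted by scintillation.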

The mark [1] stands for this setting: HEK293 stably expressing human orexin 2 receptor, [3H]-EMPA, apparent Ki, read-out: hOX2 Ki.

Chain of human orexin 2 receptor (O43614 whole entry): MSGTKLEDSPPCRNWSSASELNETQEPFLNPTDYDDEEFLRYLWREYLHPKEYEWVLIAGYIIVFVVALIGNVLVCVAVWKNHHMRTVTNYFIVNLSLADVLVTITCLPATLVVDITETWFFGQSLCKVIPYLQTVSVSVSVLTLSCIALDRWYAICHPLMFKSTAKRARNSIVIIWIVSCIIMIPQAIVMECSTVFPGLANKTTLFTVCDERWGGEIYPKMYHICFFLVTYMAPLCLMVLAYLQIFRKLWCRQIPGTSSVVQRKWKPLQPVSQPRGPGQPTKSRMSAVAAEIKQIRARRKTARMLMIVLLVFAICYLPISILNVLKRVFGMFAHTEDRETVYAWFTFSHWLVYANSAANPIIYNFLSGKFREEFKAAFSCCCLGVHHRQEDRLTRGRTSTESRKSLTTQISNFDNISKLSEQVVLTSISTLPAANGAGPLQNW

As for `COc1ccc(C(=O)N2CCC[C@@H](Nc3cnc(C(F)(F)F)cn3)[C@@H]2C)c(-n2nccn2)c1` [Example 82, (4-methoxy-2-(2H-1,2,3-triazol-2-yl)phenyl)((2S,3R)-2-methyl-3-((5-(trifluoromethyl)pyrazin-2-yl)amino)piperidin-1-yl)methanone], the figures for the Ki at rat orexin 1 receptor, on human orexin 1 receptor and on human orexin 2 receptor (setting [1]) were 0.053 µM, 0.058 µM and 6.4 µM, respectively.
The like results for `Cc1cnc(C(=O)N2CCC[C@@H](Nc3cnc(C(F)(F)F)cn3)[C@@H]2C)c(-n2nccn2)c1` [Example 72, ((2S,3R)-2-methyl-3-((5-(trifluoromethyl)pyrazin-2-yl)amino)piperidin-1-yl)(5-methyl-3-(2H-1,2,3-triazol-2-yl)pyridin-2-yl)methanone] were, in that order, 0.024 µM, 0.033 µM and 4.03 µM.
As to `Cc1ccc(-c2ncccn2)c(C(=O)N2CCC[C@@H](Nc3cnc(C(F)(F)F)cn3)[C@@H]2C)n1` [Example 84, ((2S,3R)-2-methyl-3-((5-(trifluoromethyl)pyrazin-2-yl)amino)piperidin-1-yl)(6-methyl-3-(pyrimidin-2-yl)pyridin-2-yl)methanone], the results for the Ki at rat orexin 1 receptor, at human orexin 1 receptor and at human orexin 2 receptor (setting [1]) were 0.023 µM, 0.028 µM and 0.173 µM, respectively.
The like results for `COc1ccc(C(=O)N2CCC[C@@H](Nc3ccc(C(F)(F)F)cn3)[C@@H]2C)c(-n2nccn2)c1` [Example 97, (4-methoxy-2-(2H-1,2,3-triazol-2-yl)phenyl)((2S,3R)-2-methyl-3-((5-(trifluoromethyl)pyridin-2-yl)amino)piperidin-1-yl)methanone] were, in that order, 0.044 µM, 0.032 µM and 6.1 µM.
Turning to `C[C@H]1[C@H](Nc2ccc(C(F)(F)F)nn2)CCCN1C(=O)c1ccccc1-n1nccn1` (racemic) [Example 33, (±)-trans-(2-(2H-1,2,3-triazol-2-yl)phenyl)(2-methyl-3-((6-(trifluoromethyl)pyridazin-3-yl)amino)piperidin-1-yl)methanone hydrochloride], the results for the Ki at rat orexin 1 receptor, at human orexin 1 receptor and at human orexin 2 receptor (setting [1]) were 0.199 µM, 0.16 µM and 4.8 µM, respectively.
Regarding `Cc1ccc(C(=O)N2CCC[C@@H](Nc3ccc(Cl)cn3)[C@@H]2C)c(-n2nccn2)c1` [Example 99, ((2S,3R)-3-((5-chloropyridin-2-yl)amino)-2-methylpiperidin-1-yl)(4-methyl-2-(2H-1,2,3-triazol-2-yl)phenyl)methanone], the Ki at rat orexin 1 receptor was 0.023 µM; on human orexin 1 receptor it was 0.015 µM; at human orexin 2 receptor (setting [1]) it was 1.4 µM.
`Cc1ccc(C(=O)N2CCC[C@@H](Nc3cnc(C(F)(F)F)cn3)[C@@H]2C)c(-n2nccn2)n1` [Example 74, (6-methyl-2-(2H-1,2,3-triazol-2-yl)pyridin-3-yl)((2S,3R)-2-methyl-3-((5-(trifluoromethyl)pyrazin-2-yl)amino)piperidin-1-yl)methanone]: the Ki was 0.04 µM at rat orexin 1 receptor, 0.052 µM at human orexin 1 receptor and > 10 µM at human orexin 2 receptor.
For `Cc1cnc(C(=O)N2CCC[C@@H](Nc3cnc(C(F)(F)F)cn3)[C@@H]2C)c(-c2ncco2)c1` [Example 83, ((2S,3R)-2-methyl-3-((5-(trifluoromethyl)pyrazin-2-yl)amino)piperidin-1-yl)(5-methyl-3-(oxazol-2-yl)pyridin-2-yl)methanone], the Ki was 0.057 µM on rat orexin 1 receptor, 0.053 µM on human orexin 1 receptor and 7 µM on human orexin 2 receptor (setting [1]).
The like results for `Cc1cnc(C(=O)N2CCC[C@@H](Nc3cnc(Cl)cn3)[C@@H]2C)c(-c2ncco2)c1` [Example 86, ((2S,3R)-3-((5-chloropyrazin-2-yl)amino)-2-methylpiperidin-1-yl)(5-methyl-3-(oxazol-2-yl)pyridin-2-yl)methanone] were, in that order, 0.213 µM, 0.249 µM and > 10 µM.
The like results for `Cc1ccc(C(=O)N2CCC[C@@H](Nc3ccc(C(F)(F)F)cn3)[C@@H]2C)c(-n2nccn2)c1` [Example 14, (4-methyl-2-(2H-1,2,3-triazol-2-yl)phenyl)((2S,3R)-2-methyl-3-((5-(trifluoromethyl)pyridin-2-yl)amino)piperidin-1-yl)methanone] were, in that order, 0.009 µM, 0.007 µM and 0.681 µM.
Regarding `CCOc1ccccc1C(=O)N1CCC[C@@H](Nc2ccc(Br)cn2)[C@@H]1C` (racemic) [Example 44, (±)-trans-(3-(5-bromopyridin-2-yl)amino)-2-methylpiperidin-1-yl)(2-ethoxyphenyl)methanone], the Ki turned out to be 0.082 µM on rat orexin 1 receptor, 0.072 µM at human orexin 1 receptor and 1.6 µM on human orexin 2 receptor (setting [1]).
Turning to `Cc1ccc(C(=O)N2CCC[C@@H](Nc3ccc(C(F)(F)F)cn3)[C@@H]2C)c(-n2nccn2)n1` [Example 98, (6-methyl-2-(2H-1,2,3-triazol-2-yl)pyridin-3-yl)((2S,3R)-2-methyl-3-((5-(trifluoromethyl)pyridin-2-yl)amino)piperidin-1-yl)methanone], the Ki at rat orexin 1 receptor was 0.026 µM; at human orexin 1 receptor it was 0.012 µM; on human orexin 2 receptor (setting [1]), > 10 µM.
Turning to `C[C@H]1[C@H](Nc2ccc(C(F)(F)F)cn2)CCCN1C(=O)c1cc(Cl)ccc1-n1nccn1` (racemic) [Example 17, (±)-trans-(5-chloro-2-(2H-1,2,3-triazol-2-yl)phenyl)(2-methyl-3-((5-(trifluoromethyl)pyridin-2-yl)amino)piperidin-1-yl)methanone], the Ki was determined as 0.011 µM on rat orexin 1 receptor, 0.008 µM on human orexin 1 receptor and 0.221 µM at human orexin 2 receptor (setting [1]).
With `COc1ccc(C(=O)N2CCC[C@@H](Nc3ncc(C(F)(F)F)cn3)[C@@H]2C)c(-n2nccn2)c1` [Example 95, (4-methoxy-2-(2H-1,2,3-triazol-2-yl)phenyl)((2S,3R)-2-methyl-3-((5-(trifluoromethyl)pyrimidin-2-yl)amino)piperidin-1-yl)methanone], the Ki on rat orexin 1 receptor is 0.081 µM; on human orexin 1 receptor, 0.103 µM; on human orexin 2 receptor (setting [1]), > 10 µM.
`Cc1cnc(C(=O)N2CCC[C@@H](Nc3nc4ccccc4o3)[C@@H]2C)c(-c2ncco2)c1` [Example 88, ((2S,3R)-3-(benzo[d]oxazol-2-ylamino)-2-methylpiperidin-1-yl)(5-methyl-3-(oxazol-2-yl)pyridin-2-yl)methanone]: the figures for the Ki at rat orexin 1 receptor, on human orexin 1 receptor and at human orexin 2 receptor (setting [1]) were 0.013 µM, 0.025 µM and 3.3 µM, respectively.
The like results for `Cc1ccc(-n2nccn2)c(C(=O)N2CCC[C@@H](Oc3ncc(C(F)(F)F)cn3)[C@@H]2C)n1` [Example 104, ((2S,3R)-2-methyl-3-((5-(trifluoromethyl)pyrimidin-2-yl)oxy)piperidin-1-yl)(6-methyl-3-(2H-1,2,3-triazol-2-yl)pyridin-2-yl)methanone] were, in that order, 0.119 µM, 0.173 µM and > 10 µM.
Regarding `Cc1ccc(C(=O)N2CCC[C@@H](Nc3ncc(Cl)cn3)[C@@H]2C)c(-n2nccn2)c1` [Example 91, ((2S,3R)-3-((5-chloropyrimidin-2-yl)amino)-2-methylpiperidin-1-yl)(4-methyl-2-(2H-1,2,3-triazol-2-yl)phenyl)methanone], the Ki at rat orexin 1 receptor was 0.032 µM; at human orexin 1 receptor, 0.048 µM; on human orexin 2 receptor (setting [1]), 2.1 µM.
